Results from US4767761A, “Ornithine derivatives and their use as methotrexate-resistant cell inhibitors” (priority 1987, dated 1988).
Like-named read-outs stand apart in the source and are kept apart here.

What was measured:
[1] = test system: L 1210/R81 murine leukemia cells; assay: Cytotoxicity assay against L 1210/R81 murine leukemia cells, 48 hours; assay type: cell-based; conditions: for IC50: Mus musculus, L1210 ( R81), read-out: L1210/R81 cell growth inhibition IC50; for L1210/R81 normalized relative to MTX: number in parentheses
Method: (§1) A cytotoxicity assay was carried out for the same group of compounds against L 1210 and L 1210/R81 murine leukemia cells cultured for 48 hours in RPMI 1640 medium containing 10% fetal bovine serum, using the procedure of Mosman, J. Immunol. Meth., Vol. 65, 55-63 (1983).

[2] = test system: L 1210 murine leukemia cells; assay: Cytotoxicity assay against L 1210 murine leukemia cells, 48 hours; assay type: cell-based; conditions: for IC50: Mus musculus, read-out: L1210 cell growth inhibition IC50; for L1210 normalized relative to MTX: number in parentheses
Method: as §1

[3] = test system: dihydrofolate reductase (DHFR); conditions: result in words; Rosowsky et al. (1986); cited from earlier work
[4] = test system: folylpolyglutamate synthetase (FPGS); conditions: result in words; Rosowsky et al. (1986); cited from earlier work
cell growth in culture = conditions: result in words; Rosowsky et al. (1986); cited from earlier work
[5] = target: T1, DHFR (Dihydrofolate Reductase) from L 1210/R81 murine leukemia cells (Mus musculus, UniProt P00375); assay: Inhibition of DHFR purified by MTX affinity chromatography from L 1210/R81 murine leukemia cells (spectrophotometric, 340 nm); assay type: biochemical; conditions: range of six separate experiments on different days (footnote a, Table 1)
T1 construct: endogenous in cells; host or cells: L1210/R81 murine leukemia cells
T1 sequence (P00375 1-187): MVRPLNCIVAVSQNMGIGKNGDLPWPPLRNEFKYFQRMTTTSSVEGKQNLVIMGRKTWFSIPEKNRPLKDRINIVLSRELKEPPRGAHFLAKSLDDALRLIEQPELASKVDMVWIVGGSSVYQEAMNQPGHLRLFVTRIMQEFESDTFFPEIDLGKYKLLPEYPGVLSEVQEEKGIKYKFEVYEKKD
Method: Inhibition of DHFR purified by MTX affinity chromatography from L 1210/R81 murine leukemia cells was determined. […] Certain of the compounds were also tested as inhibitors of partially purified FPGS from mouse liver.
IC50 concentrations (μM) were […]

CEM lymphoblasts = assay: Cell growth inhibition against human CEM lymphoblasts, 48 hours; assay type: cell-based; conditions: for IC50: Homo sapiens, CCRF-CEM, read-out: CEM cell growth inhibition IC50; for CEM normalized relative to MTX: number in parentheses
Method: (§2) In addition, four of the compounds were tested against human CEM and CEM/MTX lymphoblasts cultured fcr 48 hours in Dulbecco's modified Eagle's medium containing 10% fetal bovine serum.

CEM/MTX lymphoblasts = assay: Cell growth inhibition against human CEM/MTX lymphoblasts, 48 hours; assay type: cell-based; conditions: for IC50: Homo sapiens, read-out: CEM/MTX cell growth inhibition IC50; for CEM/MTX normalized relative to MTX: number in parentheses
Method: as §2

SCC15 cells [6] = assay: Growth inhibition of human squamous carcinoma cells SCC15; assay type: cell-based; conditions: SCC-15, 336 h, continuous exposure about two weeks
SCC15/R1 cells [7] = assay: Growth inhibition of MTX-resistant human squamous carcinoma cells SCC15/R1; assay type: cell-based; conditions: SCC-15, 336 h, continuous exposure about two weeks
SCC25 cells [8] = assay: Growth inhibition of human squamous carcinoma cells SCC25; assay type: cell-based; conditions: SCC-25, 336 h, continuous exposure about two weeks
SCC25/R1 cells [9] = assay: Growth inhibition of MTX-resistant human squamous carcinoma cells SCC25/R1; assay type: cell-based; conditions: SCC-25, 336 h, continuous exposure about two weeks
[10] = test system: parental SCC15 and SCC25 cells; assay: Growth inhibition of parental SCC15 and SCC25 cells (joint statement); assay type: cell-based, human
[11] = test system: L1210, L1210/R81, CEM and CEM/MTX cells; assay: Cell growth inhibition of Table 2 (joint statement); assay type: cell-based, murine; human; conditions: comparison with the other compounds
Method: as §1
In addition, four of the compounds were tested against human CEM and CEM/MTX lymphoblasts cultured fcr 48 hours in Dulbecco's modified Eagle's medium containing 10% fetal bovine serum. The IC50 (μM) values, with normalized values relative to MTX given in parentheses, are reported in the last two columns of Table 2.

SCC15 cells [12] = conditions: taken from Rosowsky et al. (1985); cited from earlier work
SCC15/R1 cells [13] = conditions: taken from Rosowsky et al. (1985); cited from earlier work
SCC25 cells [14] = conditions: taken from Rosowsky et al. (1985); cited from earlier work
SCC25/R1 cells [15] = conditions: taken from Rosowsky et al. (1985); cited from earlier work
mouse liver FPGS = conditions: footnote c, Table 1; see Moran et al.; cited from earlier work
[16] = test system: MTX-resistant SCC15/R1 and SCC25/R1 sublines; assay: Growth inhibition of MTX-resistant SCC15/R1 and SCC25/R1 sublines (joint statement); assay type: cell-based, human
[17] = L1210, 48 hours, RPMI 1640, 10% fetal bovine serum
[18] = 48 hours, RPMI 1640, 10% fetal bovine serum
[19] = 48 hours, Dulbecco's modified Eagle's medium, 10% fetal bovine serum

Compound | IC50 ([1]; 48 h) [nM] | IC50 [2, 17] [nM] | L1210 normalized relative to MTX [2] | IC50 [1, 18] [nM] | L1210/R81 normalized relative to MTX [1] | IC50 (CEM lymphoblasts; [19]) [nM] | CEM normalized relative to MTX (CEM lymphoblasts) | IC50 (CEM/MTX lymphoblasts; [19]) [nM] | CEM/MTX normalized relative to MTX (CEM/MTX lymphoblasts) | other results
Nc1nc(N)c2nc(CNc3ccc(C(=O)N[C@@H](CCC(=O)O)C(=O)O)cc3)cnc2n1 [Aminopterin, reference compound] | 84000 | – | – | – | – | – | – | – | – | –
NCCC[C@H](NC(=O)c1ccc(NCc2cnc3nc(N)nc(N)c3n2)cc1)C(=O)O [Compound 1, N^α -(4-Amino-4-deoxypteroyl)-L-ornithine] | 32000 | – | – | – | – | – | – | – | – | IC50 ([2]; L1210, 48 h): 1300 nM; inhibitor of dihydrofolate reductase [3]: potent inhibitor; inhibitor of folylpolyglutamate synthetase [4]: potent inhibitor; inhibitor of cell growth in culture (cell growth in culture): relatively inactive
CC(=O)NCCC[C@H](NC(=O)c1ccc(NCc2cnc3nc(N)nc(N)c3n2)cc1)C(=O)O [Compound 2] | – | 17 | 0.27 | 81000 | 2.5 | – | – | – | – | –
Nc1nc(N)c2nc(CNc3ccc(C(=O)N[C@@H](CCCNC(=O)c4ccccc4)C(=O)O)cc3)cnc2n1 [Compound 4] | – | 0.89 | 5.2 | 17000 | 12 | 6.6 | 5.0 | 1100 | 6.0 | IC50 [5]: 0.56 to 1.5 nM
Nc1nc(N)c2nc(CNc3ccc(C(=O)N[C@@H](CCCNC(=O)c4ccc(Cl)cc4)C(=O)O)cc3)cnc2n1 [Compound 5] | – | 3.2 | 1.4 | 27000 | 7.4 | 270 | 0.12 | 1000 | 6.6 | –
Nc1nc(N)c2nc(CNc3ccc(C(=O)N[C@@H](CCCNC(=O)c4ccc(Cl)c(Cl)c4)C(=O)O)cc3)cnc2n1 [Compound 6] | – | 32 | 0.14 | 127000 | 1.6 | 7400 | 0.0043 | 10000 | 0.66 | –
Nc1nc(N)c2nc(CNc3ccc(C(=O)N[C@@H](CCCNC(=O)c4ccccc4C(=O)O)C(=O)O)cc3)cnc2n1 [Compound 7, N^α -(4-Amino-4-deoxypteroyl)-N^67-hemi-phthaloyl-L-Ornithine] | – | – | – | – | – | – | – | – | – | IC50 ([2]; L1210, 48 h): 0.75 nM; IC50 (CEM lymphoblasts; 48 h): 4.3 nM; IC50 (CEM/MTX lymphoblasts; 48 h): 420 nM; IC50 (SCC15 cells [6]): 1.1 nM; IC50 (SCC15/R1 cells [7]): 4 nM; IC50 (SCC25 cells [8]): 0.96 nM; IC50 (SCC25/R1 cells [9]): 1.3 nM; more potent than MTX against the parental SCC15 and SCC25 cells ([10]; more potent than MTX): 10- to 30 fold; activity shown in Table 2, result in words [11]: high activity
CN(Cc1cnc2nc(N)nc(N)c2n1)c1ccc(C(=O)N[C@@H](CCC(=O)O)C(=O)O)cc1 [Methotrexate] | 200000 | – | – | – | – | – | – | – | – | IC50 (CEM lymphoblasts; 48 h): 32 nM; IC50 (CEM/MTX lymphoblasts; 48 h): 6600 nM; IC50 (SCC15 cells [12]): 38 nM; IC50 (SCC15/R1 cells [13]): 580 nM; IC50 (SCC25 cells [14]): 7.5 nM; IC50 (SCC25/R1 cells [15]): 150 nM; substrate for mouse liver FPGS (mouse liver FPGS): substrates
CN(Cc1cnc2nc(N)nc(N)c2n1)c1ccc(C(=O)N[C@@H](CCC(=O)OC(C)(C)C)C(=O)O)cc1 [γ-t-butyl ester of MTX, γ-tert. -butyl ester of methotrexate] | – | – | – | – | – | – | – | – | – | less potent than MTX against the parental SCC15 and SCC25 cells ([10]; less potent than MTX): at least 10 fold; less potent than MTX against the MTX-resistant SCC15/R1 and SCC25/R1 sublines [16]: at least 30 fold; IC50 (SCC15 cells [12]): 600 nM; IC50 (SCC15/R1 cells [13]): 1300 nM; IC50 (SCC25 cells [14]): 400 nM; IC50 (SCC25/R1 cells [15]): 780 nM
